This note sets out measurements from publication PMC10002984, “Dual PTP1B/TC-PTP Inhibitors: Biological Evaluation of 3-(Hydroxymethyl)cinnoline-4(1H)-Ones” (International Journal of Molecular Sciences, 2023).

One test deals with TCPTP gene. Nature of the test: Gene expression in the liver of obese rats (qPCR), TCPTP gene. The class given is in vivo, rat. To be noted: five-day treatment, vs Ob group. Here is the method: (§1) Further, six groups were formed: control (Con, n = 10), obesity (Ob, n = 10), obese rats with five-day treatment with compounds 1 (Ob + 1, n = 5), 2 (Ob + 2, n = 5), 3 (Ob + 3, n = 10), and 4 (Ob + 4, n = 10). All compounds were administered in DMSO (300 µL) at a daily dose of 7 mg/kg (1 and 2), 8 mg/kg (3), and 10 mg/kg (4) (i.p.), based on the results of the preliminary experiments. The used doses of compounds 1–4, in terms of the number of moles of each compound per kg of animal body weight, were equivalent. Control and obese rats received DMSO in the same volumes (300 µL), instead of the tested compounds. During the five days of the experiment, all animals were transferred to standard food and had free access to food and drinking water. […] The test was carried out on the morning of the next day after the last (fifth) injection of the compounds or DMSO, after a 10 h fast. The rest of the animals (n = 5 in each group) were anesthetized and decapitated on the last day of the experiment. The blood and liver samples were taken to measure blood glucose and hormone levels and gene expression in the liver.
The total RNA was isolated from the liver samples of rats using the “ExtractRNA Reagent” (Evrogen, Moscow, Russia), and the samples containing 1 μg of RNA were transcribed to cDNA using the random oligodeoxynucleotide primers and the “MMLV RT kit” (Evrogen, Russia). The amplification procedure was carried out in the mixture containing 10 ng of reverse transcribed product, 0.4 μM of the forward and reverse primers, and the “qPCRmix-HS SYBR + LowROX kit” (Evrogen, Russia). The amplified signals were detected using the “Applied Biosystems® 7500 Real-Time PCR System” (Life Technologies, Carlsbad, CA, USA, Thermo Fisher Scientific Inc., USA). The primers that were used to assess the expression of genes encoding the phosphatase PTP1B, TC-PTP, and SHP1 and the insulin and leptin receptors are presented in Table 4. The obtained data were calculated with the delta–delta Ct method and expressed as a fold expression, relative to the corresponding control. […]

Test [1] relates to male rats with HFD-induced obesity. Nature of the test: Glucose tolerance test in obese rats after five-day treatment. The class given is in vivo, male Wistar rats. The conditions noted are these: 4 10 mg/kg/day; for reduction of AUC0-120 of the glucose concentration curve vs untreated animals: GTT after five-day treatment, p < 0.05 vs Ob group; for reduction of AUC0-120 of the glucose concentration curve vs untreated animals / reduction of glucose level 120 min after glucose load vs untreated obese animals: 3 8 mg/kg/day; for reduction of glucose level 120 min after glucose load vs untreated obese animals: GTT glucose 2 g/kg i.p. after five-day treatment.
Text: (§2) The obesity model was induced at 16-weeks (starting at two months of age) using a high-fat diet. Control animals received standard laboratory chow pellets. The high-fat diet included supplements of 5–7 g of a fat mixture containing 52.4% pork lard, 41.7% curd, 5% liver, 0.5% L-methionine, 0.2% baker’s yeast, and 0.2% sodium chloride. After 16-weeks on a high-fat diet, the animals with increased body weight, glucose intolerance, and hyperinsulinemia, and hyperleptinemia were selected for further experiments. The glucose intolerance was estimated according to the results of the glucose tolerance test (GTT). In the GTT, 120 min after glucose loading, the blood glucose levels in obese rats were above 7 mM, and the AUC0-120 values for the curve “glucose concentration (mM)–time (minutes)” were above 30%, as compared to the average AUC0-120 values in the control group.
as §1
The glucose levels in the blood obtained from the tail vein were measured using a glucometer (Life Scan Johnson & Johnson, Denmark) and the test strips “One Touch Ultra” (USA). The levels of insulin and leptin in rat serum were estimated with the “Rat Insulin ELISA” (Mercodia AB, Uppsala, Sweden) and “ELISA for Leptin, Rat” (Cloud-Clone Corporation, Houston, TX, USA) kits. The GTT was carried out using a single injection of glucose (2 g/kg, i.p.) after 10 h of fasting, as described earlier. The blood glucose levels were measured before (0 min) and 15, 30, 60, and 120 min after the glucose load.

Test [2] has as its system insulin receptor gene (InsR). Description: Gene expression in the liver of obese rats (qPCR), insulin receptor gene. The class given is in vivo, rat. The conditions noted are these: five-day treatment, difference with Ob group not significant. Here is the method: (§3) Further, six groups were formed: control (Con, n = 10), obesity (Ob, n = 10), obese rats with five-day treatment with compounds 1 (Ob + 1, n = 5), 2 (Ob + 2, n = 5), 3 (Ob + 3, n = 10), and 4 (Ob + 4, n = 10). All compounds were administered in DMSO (300 µL) at a daily dose of 7 mg/kg (1 and 2), 8 mg/kg (3), and 10 mg/kg (4) (i.p.), based on the results of the preliminary experiments. The used doses of compounds 1–4, in terms of the number of moles of each compound per kg of animal body weight, were equivalent. Control and obese rats received DMSO in the same volumes (300 µL), instead of the tested compounds. During the five days of the experiment, all animals were transferred to standard food and had free access to food and drinking water. […]
(§4) The total RNA was isolated from the liver samples of rats using the “ExtractRNA Reagent” (Evrogen, Moscow, Russia), and the samples containing 1 μg of RNA were transcribed to cDNA using the random oligodeoxynucleotide primers and the “MMLV RT kit” (Evrogen, Russia). […] The amplified signals were detected using the “Applied Biosystems® 7500 Real-Time PCR System” (Life Technologies, Carlsbad, CA, USA, Thermo Fisher Scientific Inc., USA). […] The obtained data were calculated with the delta–delta Ct method and expressed as a fold expression, relative to the corresponding control. […]

Test [3] has as its system leptin receptor gene (LepR). Description: Gene expression in the liver of obese rats (qPCR), leptin receptor gene. It counts as in vivo, rat. The conditions noted are these: five-day treatment, difference with Ob group not significant. The protocol: as §3, §4
(Real-time PCR tracks product formation cycle by cycle.)

In another test the test system is PTP1B gene. Description: Gene expression in the liver of obese rats (qPCR), PTP1B gene. It counts as in vivo, rat. The conditions noted are these: five-day treatment, vs Ob group. The protocol:
as §3, §4

The subject of test [4] is male rats with HFD-induced obesity. Description: Body weight and food intake in obese rats, five-day treatment. To be noted: five-day treatment i.p., 3 8 mg/kg/day, 4 10 mg/kg/day; for reduction of body weight in obese rats: p < 0.05 vs untreated obese animals; for reduction of the consumption of dry standard food: obese rats. The class given is in vivo, male Wistar rats. The protocol: The male Wistar rats (at the start of the experiment the age of the animals was 2-months, and at the end of the experiment their age was 6-months) were obtained from the Rappolovo animal facility (Russia). The animals were housed in plastic cages, five animals in each, with a normal light–dark cycle (12 h/12 h), a temperature of 22 ± 3 °C, and free access to food and water. All experiments were approved by the Institutional Animal Care and Use Committee at the Sechenov Institute of Evolutionary Physiology and Biochemistry (St. Petersburg, Russia) (protocol No 02/02-2020, 19 February 2020) and according to The Guide for the Care and Use of Laboratory Animals and the European Communities Council Directive of 1986 (86/609/EEC). All efforts were made to minimize animal suffering and reduce the number of experimental animals.
as §2
as §1, with “The blood and liver samples were taken to measure blood glucose and hormone levels and gene expression in the liver.” left out

SMILES strings stand for the structures.

On to `O=c1c(CO)n[nH]c2ccccc12` [Compound 1], for which the “expression of the TCPTP gene in the liver” value (shortened to “expression of the TCPTP gene”) with TCPTP gene was “significant difference to the Ob group”.
Consider `O=c1c(CO)n[nH]c2ccc(Cl)cc12` [Compound 3, 6-Chloro-3-(hydroxymethyl)cinnolin-4(1H)-one], for which, in test [1], the “reduction of AUC0-120 of the glucose concentration curve vs untreated animals” value was determined as 24% and the “reduction of glucose level 120 min after glucose load vs untreated obese animals” value was 20%. Also, the “expression of the gene encoding the insulin receptor in the liver” value in test [2] is on record as “slight decrease”. For the same molecule, in test [3], the “expression of the gene encoding the leptin receptor in the liver” value is recorded as “slight decrease”. In addition, the “expression of the PTP1B gene in the liver” value with PTP1B gene is “significant difference to the Ob group”. For the same molecule, in test [4], the “reduction of body weight in obese rats” value was 22.2 ± 4.5 g and the “reduction of the consumption of dry standard food” value came out at 46%. In the test on TCPTP gene, the “expression of the TCPTP gene” value is “significant difference to the Ob group”.
As to `O=c1c(CO)n[nH]c2ccc(Br)cc12` [Compound 4, 6-Bromo-3-(hydroxymethyl)cinnolin-4(1H)-one], in test [1], the “reduction of AUC0-120 of the glucose concentration curve vs untreated animals” value turned out to be 20% and the “reduction of glucose level 120 min after glucose load vs untreated obese animals” value turned out to be 17%. Also, the “glucose sensitivity in the glucose tolerance test” value in test [1] (obese rats, five-day treatment) is given as “improved”. Besides, the “expression of the gene encoding the insulin receptor in the liver” value in test [2] is on record as “slight decrease”. Besides, in test [3], the “expression of the gene encoding the leptin receptor in the liver” value is on record as “slight decrease”. Moreover, in the test with PTP1B gene, the “expression of the PTP1B gene in the liver” value was “significant difference to the Ob group”. For the same molecule, in test [4], the “reduction of body weight in obese rats” value amounted to 22.6 ± 4.0 g and the “reduction of the consumption of dry standard food” value was 39%. Moreover, the “expression of the TCPTP gene” value in the test on TCPTP gene is given as “significant difference to the Ob group”.
